Measurements as given in US20110200992A1, “Biological Compositions, Articles and Methods for Monitoring Sterilization Processes” (priority 2008, published 2011).

Tests used:
Type in all cases: cell-based
[1] = test system: Gb. stearothermophilus spores; test: Fluorescence with live and dead (sterilized) spores, dye and nutrient medium treated with the same sterilizing conditions (Example 3)
Description: A glass vial containing 1 mL of 1×E7 Gb. stearothermophilus spore suspension described above and a glass vial containing 1 mL of medium containing a cell-permeant fluorescent dye as described in Example 1 were placed in a sterilizer and run in a 15 min 121° C. (250° F.) vacuum assisted cycle in a AMSCO Scientific SG-120 Eagle/Century Series steam sterilizer (Steris, Mentor Ohio), and 100 microlitres of the resulting autoclaved spore suspensions and medium were subsequently tested. Un-autoclaved spore suspensions that were subjected to a heat shock treatment at 80° C. for 10 min were tested simultaneously as a control. Spore suspensions (100 microlitres) were combined with 200 microlitres of medium, consisting of Acridine orange dye and nutrients as described in Example 1, that was run through the same steam sterilization cycle as the spores, and each resulting mixture was added to a well of a plate. The plate was subsequently placed in a preheated plate reader (Synergy 4, BioTek, Winooski, Vt.) at 50° C. and incubated for 180 min, during which fluorescence intensity readings using excitation and emission wavelengths of 520 and 580, respectively were taken for at total of 19 readings.

[2] = test system: spores of Gb stearothermophilus; test: Fluorescence intensity vs. time of spore suspension with dye, with or without nutrients (Example 1); conditions: Acridine Orange 6.6 μM, ex 485 nm, em 530 nm, 50° C.; for Fluorescence Intensity of Spore Suspension with Dye: no nutrients
Description: Spore suspensions of Gb. stearothermophilus (also known as Bacillus stearothermophilus) were prepared by known methods as described in Example 1 of U.S. Pat. No. 5,418,167 ([…] et al.). Modifications of these methods and alternative methods known to those skilled in the art may also be used for preparing these suspensions. Representative cell-permeant dyes from the following classes: green fluorescent nucleic acid stains, red fluorescent nucleic acid stains, and Acridine Orange were tested with spores of Gb stearothermophilus. Specifically, 100 microliters of the spore suspension described above were combined with 200 microlitres of a 1:5000 dilution of the dye with Sterile Water For Irrigation (Baxter, Deerfield, Ill.) or with nutrients glucose, fructose, and potassium chloride in water (1 mg/ml, 1 mg/ml, and 3.3 mgs/ml, respectively), 0.2 M valine, 0.04 M isoleucine, 0.2 M methionine, 4 mg/ml inosine, and 0.4 M alanine. The fluorescence intensity of each of the resulting suspensions was monitored at an incubation temperature of 50° C., using the following dyes at the concentrations and excitation and emission wavelengths indicated below: SYTO 24: 1.0 μM (micromolar); excitation at 485 nm, emission at 530 nm; Acridine Orange: 6.6 μM; excitation at 485 nm, emission at 530 nm; SYTO 64: 1.0 μM; excitation at 530 nm, emission at 620 nm. The dyes are available from Invitrogen, (Carlsbad, Calif.). Fluorescence was monitored in a Biotek FL600 fluorimeter or Biotek Synergy 4 plate reader (Biotek, Winooski, Vt.).

[3] = test system: Gb. stearothermophilus spores on a polypropylene carrier; test: Change in fluorescence of biological indicators after lethal and sub-lethal sterilization cycles (Example 4); conditions: 485/530 nm, 1×E5 spores, 1:5000 dye, incubated 50° C.
Description: Eighty biological indicators (BIs) were prepared by coating a suspension of Gb. stearothermophilus spores at a concentration of 1×E5 on a polypropylene carrier. Following drying at 37° C. for 20 min, the BIs were exposed to commonly used sterilization conditions as described below in Tables 4a, 4b, and 4c. Following sterilization the BIs were activated with a medium, exposed to the same sterilization conditions as the spores and containing of a 1:5000 dilution of Acridine Orange along with glucose, fructose, and potassium chloride in water (1 mg/ml, 1 mg/ml, and 3.3 mgs/ml, respectively), 0.02 M alanine, 0.01 M valine, 0.002 M isoleucine, 0.2 mg/ml inosine, and a small amount of Bromo Cresol Purple. The combination of the medium with the spores on the carrier, subjected to lethal and sub-lethal sterilization processes shown in Tables 4a-4c, was incubated at 50° C. for 60 min, and fluorescence intensity readings were taken at 30 and 60 min using excitation at 485 nm and emission at 530 nm.

[4] = 1 min in 132° C. (270° F.) Gravity Cycle, AMSCO EAGLE Model 2013 Steam Sterilizer
[5] = 1 min in 132° C. (270° F.) Vacuum Assisted Cycle, Joslyn BIER Vessel
[6] = 3 min in 132° C. (270° F.) Gravity Cycle, AMSCO EAGLE Model 2013 Steam Sterilizer
[7] = 3 min in 132° C. (270° F.) Vacuum Assisted Cycle, Joslyn BIER Vessel
[8] = 5 min in 121° C. (250° F.) Vacuum Assisted Cycle, Joslyn BIER Vessel
[9] = 15 min in 121° C. (250° F.) Vacuum Assisted Cycle, Joslyn BIER Vessel

Question: With CN(C)c1ccc2cc3ccc(N(C)C)cc3nc2c1 [Acridine Orange] as the molecule, how does the “Fluorescence intensity (normalized)” value ([1]; Autoclaved (dead) Spores, E6, ex 520/em 580, 50° C., 0 min) read?
Answer: 0

Question: And the “Fluorescence intensity (normalized)” value ([1]; Autoclaved (dead) Spores, E6, ex 520/em 580, 50° C., 30 min)?
Answer: −1468.25

Question: And the “Fluorescence intensity (normalized)” value ([1]; Autoclaved (dead) Spores, E6, ex 520/em 580, 50° C., 60 min)?
Answer: −103.5

Question: And the “Fluorescence intensity (normalized)” value ([1]; Autoclaved (dead) Spores, E6, ex 520/em 580, 50° C., 90 min)?
Answer: −9.25

Question: What about the “Fluorescence intensity (normalized)” value ([1]; Autoclaved (dead) Spores, E6, ex 520/em 580, 50° C., 120 min) of the same molecule?
Answer: −49.25

Question: What about the “Fluorescence intensity (normalized)” value ([1]; Autoclaved (dead) Spores, E6, ex 520/em 580, 50° C., 180 min) of the same molecule?
Answer: −307

Question: What about the “Fluorescence intensity (normalized)” value ([1]; Autoclaved Spores, 0, ex 520/em 580, 50° C., 0 min) of the same molecule?
Answer: 0

Question: What about the “Fluorescence intensity (normalized)” value ([1]; Autoclaved Spores, 0, ex 520/em 580, 50° C., 30 min) of the same molecule?
Answer: 375.25

Question: And the “Fluorescence intensity (normalized)” value ([1]; Autoclaved Spores, 0, ex 520/em 580, 50° C., 60 min)?
Answer: 1347.25

Question: What about the “Fluorescence intensity (normalized)” value ([1]; Autoclaved Spores, 0, ex 520/em 580, 50° C., 90 min) of the same molecule?
Answer: 1533.75

Question: What about the “Fluorescence intensity (normalized)” value ([1]; Autoclaved Spores, 0, ex 520/em 580, 50° C., 120 min) of the same molecule?
Answer: 1491.25

Question: And the “Fluorescence intensity (normalized)” value ([1]; Autoclaved Spores, 0, ex 520/em 580, 50° C., 180 min)?
Answer: 1427.75

Question: What about the “Fluorescence intensity (normalized)” value ([1]; Live Spores (heat shocked), E6, autoclaved dye + nutrient medium, ex 520/em 580, 50° C., 0 min) of the same molecule?
Answer: 0

Question: And the “Fluorescence intensity (normalized)” value ([1]; Live Spores (heat shocked), E6, autoclaved dye + nutrient medium, ex 520/em 580, 50° C., 30 min)?
Answer: 6211.5

Question: And the “Fluorescence intensity (normalized)” value ([1]; Live Spores (heat shocked), E6, autoclaved dye + nutrient medium, ex 520/em 580, 50° C., 60 min)?
Answer: 8652.5

Question: What about the “Fluorescence intensity (normalized)” value ([1]; Live Spores (heat shocked), E6, autoclaved dye + nutrient medium, ex 520/em 580, 50° C., 90 min) of the same molecule?
Answer: 9955.5

Question: What about the “Fluorescence intensity (normalized)” value ([1]; Live Spores (heat shocked), E6, autoclaved dye + nutrient medium, ex 520/em 580, 50° C., 120 min) of the same molecule?
Answer: 10376.5

Question: And the “Fluorescence intensity (normalized)” value ([1]; Live Spores (heat shocked), E6, autoclaved dye + nutrient medium, ex 520/em 580, 50° C., 180 min)?
Answer: 10694.25

Question: And the “Fluorescence intensity (normalized)” value ([1]; Live Spores, 0, autoclaved dye + nutrient medium, ex 520/em 580, 50° C., 0 min)?
Answer: 0

Question: And the “Fluorescence intensity (normalized)” value ([1]; Live Spores, 0, autoclaved dye + nutrient medium, ex 520/em 580, 50° C., 30 min)?
Answer: 522.25

Question: And the “Fluorescence intensity (normalized)” value ([1]; Live Spores, 0, autoclaved dye + nutrient medium, ex 520/em 580, 50° C., 60 min)?
Answer: 588.75

Question: And the “Fluorescence intensity (normalized)” value ([1]; Live Spores, 0, autoclaved dye + nutrient medium, ex 520/em 580, 50° C., 90 min)?
Answer: 779.75

Question: What about the “Fluorescence intensity (normalized)” value ([1]; Live Spores, 0, autoclaved dye + nutrient medium, ex 520/em 580, 50° C., 120 min) of the same molecule?
Answer: 870

Question: What about the “Fluorescence intensity (normalized)” value ([1]; Live Spores, 0, autoclaved dye + nutrient medium, ex 520/em 580, 50° C., 180 min) of the same molecule?
Answer: 886.5

Question: What about the “Fluorescence Intensity of Spore Suspension with Dye” value ([2]; 0 min) of the same molecule?
Answer: 2005

Question: What about the “Fluorescence Intensity of Spore Suspension with Dye” value ([2]; 10 min) of the same molecule?
Answer: 2665

Question: What about the “Fluorescence Intensity of Spore Suspension with Dye” value ([2]; 20 min) of the same molecule?
Answer: 4069

Question: And the “Fluorescence Intensity of Spore Suspension with Dye” value ([2]; 30 min)?
Answer: 5655

Question: And the “Fluorescence Intensity of Spore Suspension with Dye” value ([2]; 40 min)?
Answer: 7091

Question: What about the “Fluorescence Intensity of Spore Suspension with Dye and Nutrients” value ([2]; 0 min) of the same molecule?
Answer: 2687

Question: What about the “Fluorescence Intensity of Spore Suspension with Dye and Nutrients” value ([2]; 10 min) of the same molecule?
Answer: 2777

Question: What about the “Fluorescence Intensity of Spore Suspension with Dye and Nutrients” value ([2]; 20 min) of the same molecule?
Answer: 4241

Question: What about the “Fluorescence Intensity of Spore Suspension with Dye and Nutrients” value ([2]; 30 min) of the same molecule?
Answer: 7842

Question: What about the “Fluorescence Intensity of Spore Suspension with Dye and Nutrients” value ([2]; 40 min) of the same molecule?
Answer: 11708

Question: And the “Average Change in Fluorescence at 30 min” value [3, 4]?
Answer: 1462

Question: And the “Average Change in Fluorescence at 60 min” value [3, 4]?
Answer: 1808

Question: What about the “Average Change in Fluorescence at 30 min” value [3, 5] of the same molecule?
Answer: 2607

Question: And the “Average Change in Fluorescence at 60 min” value [3, 5]?
Answer: 2762

Question: And the “Average Change in Fluorescence at 30 min” value [3, 6]?
Answer: 201

Question: And the “Average Change in Fluorescence at 60 min” value [3, 6]?
Answer: 22

Question: What about the “Average Change in Fluorescence at 30 min” value [3, 7] of the same molecule?
Answer: 279

Question: What about the “Average Change in Fluorescence at 60 min” value [3, 7] of the same molecule?
Answer: 386

Question: And the “Average Change in Fluorescence at 30 min” value [3, 8]?
Answer: 2774

Question: And the “Average Change in Fluorescence at 60 min” value [3, 8]?
Answer: 3347

Question: And the “Average Change in Fluorescence at 30 min” value [3, 9]?
Answer: 383

Question: What about the “Average Change in Fluorescence at 60 min” value [3, 9] of the same molecule?
Answer: 353
